Laboratory results reported in patent publication US20080176828A1, “Treating melanoma with BIS(THIOHYDRAZIDE AMIDES)” (priority 2006, published 2008).
Where “and” joins values, the source holds several entries; their conditions need not be identical. Equal values may be shown once. Read-outs that look alike come from different tables or passages of the source.

Columns and labels:
melanoma = details: currently used melanoma treatments, cited from earlier work
[1] = tested on: Stage IV metastatic melanoma
Protocol: Example 1, weekly treatment regimen of compound (1) and paclitaxel combined in Stage IV metastatic melanoma patients in comparison with paclitaxel alone, based on time to progression
The dosages administered were 213 mg/m^2 compound (1), 80 mg/m^2 paclitaxel, and the dosage regimen was 3 weekly doses per each 4 week cycle. Patients were treated until progression of the disease. […] The tumor assessments were performed at baseline, Cycle 2, and every other Cycle thereafter.

[2] = Kaplan-Meier estimate, efficacy sample, Stage IV melanoma patients, 3 weekly doses per 4 week cycle
[3] = RECIST, efficacy sample, number of patients (% of group)
[4] = own trial arms as listed in Tables 3 and 4

## CC/C(=C(\c1ccccc1)c1ccc(OCCN(C)C)cc1)c1ccccc1 [Tamoxifen]
melanoma
  CR: 1%
  OR: 4.9%
  PR: 3.9%

## CNC(=O)c1cc(Oc2ccc(NC(=O)Nc3ccc(Cl)c(C(F)(F)F)c3)cc2)ccn1 [Sorafenib]
melanoma
  PR: 2.6%

## CC(=O)O[C@H]1C(=O)[C@@]2(C)[C@H]([C@H](OC(=O)c3ccccc3)[C@]3(O)C[C@H](OC(=O)[C@H](O)[C@@H](NC(=O)c4ccccc4)c4ccccc4)C(C)=C1C3(C)C)[C@]1(OC(C)=O)CO[C@@H]1C[C@@H]2O [Paclitaxel]
melanoma; listed as Paclitaxel (Taxol)
  OR: 12% and 17.8%
[1]; [2]
  Time to Progression, 75th percentile (95% CI): 106.0 (61.0, 218.0) days
  Time to Progression, Median (95% CI): 56.0 (49.0, 105.0) days
[1]; [3]
  Best Overall Response: Complete Response (CR): 0
  Best Overall Response: Partial Response (PR): 1 (3.7%)
  Best Overall Response: Progressive Disease (PD): 16 (59.3%)
[1]; RECIST, efficacy sample, two-sided Fisher's exact test p-value 0.149
  CR + PR (95% CI): 3.7% (0.1%, 19.0%)
[1]; Table 2
  patients with stable disease: 37%
[1]; [4]
  CR: 0%
  OR: 3.7%
  PR: 3.7%
  TTP: 57 days

## CCOP(=O)(OCC)C(C)NC(=O)N(CCCl)N=O (stereo not shown) [Fotemustine]
melanoma
  OR: 15.2%
  Survival: 7.3 months
  TTP: 55 days
